Test results as given in patent US12338203B2 (TAISHO PHARMACEUTICAL CO., LTD., priority 2019, dated 2025).

Biological target: T1, human LPAR1 (Homo sapiens, UniProt Q92633)
T1 construct: expressed in transfected cells
Assay: Test Example 1: antagonism against response of LPA-induced increase in intracellular Ca2+ concentration in RH7777 cells stably expressing human LPAR1
Type: cell-based
Details: RH7777 cells stably expressing human LPAR1; Fluo-4 fluorescence, FDSS6000; read-out: IC50 value (concentration producing 50% antagonism against response of LPA-induced increase in intracellular Ca2+ concentration) (converted)
Procedure, shortened: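 Ca2+ flux read at 540 nm emission (480 nm excitation) after LPA addition to human LPAR1-expressing RH7777 cells exposed to compound for 30 min, 37 °C, pH 7.4 HEPES-buffered HBSS. Response relative to no-compound control after basal subtraction; IC50 fitted from concentration–response.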

T1 sequence (Q92633 whole entry): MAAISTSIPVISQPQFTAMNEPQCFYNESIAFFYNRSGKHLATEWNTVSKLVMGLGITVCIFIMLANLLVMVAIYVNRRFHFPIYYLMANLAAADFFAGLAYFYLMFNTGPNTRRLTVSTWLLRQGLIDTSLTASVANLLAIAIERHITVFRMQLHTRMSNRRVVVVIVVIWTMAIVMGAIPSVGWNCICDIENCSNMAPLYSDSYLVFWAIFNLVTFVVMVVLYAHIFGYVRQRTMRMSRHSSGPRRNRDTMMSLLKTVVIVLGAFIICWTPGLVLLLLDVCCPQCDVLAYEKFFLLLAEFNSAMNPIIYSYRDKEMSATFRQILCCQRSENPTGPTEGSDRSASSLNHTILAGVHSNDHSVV

SMILES | IC50 [nM]
CCOc1c(C(C)=O)ccc([C@@H](C)N(CCO[C@H](C)c2ccccc2)C(=O)NC2(C(=O)O)CC(OC)C2)c1C (stereo partly drawn) [Example 4-154] | 3.68
CCOc1c(C(C)=O)ccc([C@@H](C)N(CCO[C@H](C)c2ccccc2)C(=O)NC2(C(=O)O)CC(OCC)C2)c1C (stereo partly drawn) [Example 4-157] | 3.71
CCOc1c(C(C)=O)ccc([C@@H](C)N(CCO[C@H](C)c2ccccc2)C(=O)NC2(C(=O)O)CC(OCC)C2)c1C (stereo partly drawn) [Example 4-158] | 4.39
CCOc1c(C(C)=O)ccc([C@@H](C)N(CCO[C@H](C)c2ccccc2)C(=O)NC2(C(=O)O)CCOCC2)c1C [Example 4-159] | 6.22
CCOc1cc([C@@H](C)N(CCOC(C)(C)c2ccccc2)C(=O)NC2(C(=O)O)CC(F)(F)C2)cc(OCC)c1C1CC1 [Example 4-160] | 10.4
CCOc1cc([C@@H](C)N(CC(=O)NCc2ccccc2)C(=O)NC2(C(=O)O)CC(F)(F)C2)cc(OCC)c1C [Example 4-163] | 384
COc1cc([C@@H](C)N(CCOCc2ccccc2)C(=O)NC2(C(=O)O)CC(F)(F)C2)cc(OC)c1C [Example 4-164] | 3.26
CCOC1CC(NC(=O)N(CCOCc2ccccc2)[C@H](C)c2cc(OC)c(C)c(OC)c2)(C(=O)O)C1 (stereo partly drawn) [Example 4-165] | 4.85
CCOc1c(C2CC2)ccc([C@@H](C)N(CCO[C@@H](C)c2ccccc2)C(=O)NC2(C(=O)O)CCC2)c1C [Example 4-166] | 2.02
CCOc1c(C2CC2)ccc([C@@H](C)N(CCOC(C)c2ccccc2)C(=O)NC2(C(=O)O)CC(F)(F)C2)c1C (stereo partly drawn) [Example 4-167] | 2.5
CCOc1c(C)ccc([C@@H](C)N(CCOC(C)c2ccccc2)C(=O)NC2(C(=O)O)CC(F)(F)C2)c1C (stereo partly drawn) [Example 4-168] | 6.29
CCOc1c(C2CC2)ccc([C@@H](C)N(CCO[C@H](C)c2ccccc2)C(=O)NC2(C(=O)O)CCC2)c1C [Example 4-171] | 3.38
CCOc1c(C2CC2)ccc([C@@H](C)N(CCO[C@H](C)c2ccccc2)C(=O)NC2(C(=O)O)CC(F)(F)C2)c1C [Example 4-172] | 2.43
CCOc1cc([C@@H](C)N(CCO[C@@H](C)c2ccccc2Cl)C(=O)NC2(C(=O)O)CC(F)(F)C2)c(Cl)c(OCC)c1C(C)=O [Example 4-175] | 3.47
CCOc1cc([C@@H](C)N(CCO[C@@H](C)c2cccc(Cl)c2)C(=O)NC2(C(=O)O)CCC2)c(Cl)c(OCC)c1C(C)=O [Example 4-176] | 15.3
CCOc1cc([C@@H](C)N(CCO[C@@H](C)c2cccc(Cl)c2)C(=O)NC2(C(=O)O)CC(F)(F)C2)c(Cl)c(OCC)c1C(C)=O [Example 4-177] | 4.02
CCOc1c(C2CC2)ccc([C@@H](C)N(CCOC(C)c2ccccc2Cl)C(=O)NC2(C(=O)O)CCC2)c1C (stereo partly drawn) [Example 4-178] | 24
CCOc1c(C2CC2)ccc([C@@H](C)N(CCO[C@H](C)c2cccc(Cl)c2)C(=O)NC2(C(=O)O)CCC2)c1C [Example 4-180] | 6.22
CCOc1c(C2CC2)ccc([C@@H](C)N(CCO[C@H](C)c2cccc(Cl)c2)C(=O)NC2(C(=O)O)CC(F)(F)C2)c1C [Example 4-181] | 3.27
CCOc1cc(OCC)cc(C(C)N(CCCCc2ccccc2)C(=O)NC2(C(=O)O)CC(F)(F)C2)c1 (stereo not drawn) [Example 5-1, 1-({[1-(3,5-Diethoxyphenyl)Ethyl](4-Phenylbutyl) Carbamoyl}Amino)-3,3-Difluorocyclobutane-1-Carboxylic Acid] | 99.6

SMILES | IC50 [nM]
O=C(NC1(C(=O)O)CCCC1)N(CCCCc1ccccc1)Cc1cccc(Cl)c1 [Example 5-2] | 4520
CCOc1cccc(C(C)N(CCCCc2ccccc2)C(=O)NC2(C(=O)O)CC(F)(F)C2)c1 (stereo not drawn) [Example 5-3] | 45.5
CC(=O)c1ccc(C(C)N(CCCCc2ccccc2)C(=O)NC2(C(=O)O)CC(F)(F)C2)cc1 (stereo not drawn) [Example 5-4] | 128
CC(c1ccc(C#N)cc1)N(CCCCc1ccccc1)C(=O)NC1(C(=O)O)CC(F)(F)C1 (stereo not drawn) [Example 5-5] | 39.7
CC(c1ccc(F)cc1)N(CCCCc1ccccc1)C(=O)NC1(C(=O)O)CC(F)(F)C1 (stereo not drawn) [Example 5-6] | 164
Cc1ccc(C(C)N(CCCCc2ccccc2)C(=O)NC2(C(=O)O)CC(F)(F)C2)cc1 (stereo not drawn) [Example 5-7] | 132
CCOc1cc(C(C)N(CCCCc2ccccc2)C(=O)NC2(C(=O)O)CC(F)(F)C2)ccc1C(C)=O (stereo not drawn) [Example 5-8] | 3.62
CCOc1cc(C(C)N(CCCCc2ccccc2)C(=O)NC2(C(=O)O)CC(F)(F)C2)ccc1C(C)O (stereo not drawn) [Example 5-9] | 2.82
CCOc1cc(OCC)cc(C(C)N(CCCCc2ccccc2)C(=O)NC2(C(=O)O)CCCC2)c1 (stereo not drawn) [Example 5-10] | 35.4
CCOc1cc(OCC)cc(C(C)N(CCCCc2ccccc2)C(=O)NC2(C(=O)O)Cc3ccccc3C2)c1 (stereo not drawn) [Example 5-11] | 79.7
CCOc1cc(OCC)cc([C@@H](C)N(CCCCc2ccccc2)C(=O)NC2(C(=O)O)Cc3ccccc3C2)c1 [Example 5-12] | 45.4
COc1cc(OC)cc(C(C)N(CCCCc2ccccc2)C(=O)NC2(C(=O)O)CC(F)(F)C2)c1 (stereo not drawn) [Example 5-13] | 4.32
COCc1cc(OC)cc(C(C)N(CCCCc2ccccc2)C(=O)NC2(C(=O)O)CC(F)(F)C2)c1 (stereo not drawn) [Example 5-14] | 19.1
CCCc1cc(OCC)cc(C(C)N(CCCCc2ccccc2)C(=O)NC2(C(=O)O)CC(F)(F)C2)c1 (stereo not drawn) [Example 5-15] | 6.1
CCCOc1cc(OC)cc(C(C)N(CCCCc2ccccc2)C(=O)NC2(C(=O)O)CC(F)(F)C2)c1 (stereo not drawn) [Example 5-16] | 8.97
CCCOc1cc(OCC)cc(C(C)N(CCCCc2ccccc2)C(=O)NC2(C(=O)O)CC(F)(F)C2)c1 (stereo not drawn) [Example 5-17] | 8.86
CCCOc1cc(OCCC)cc(C(C)N(CCCCc2ccccc2)C(=O)NC2(C(=O)O)CC(F)(F)C2)c1 (stereo not drawn) [Example 5-18] | 11
CCOc1cc(C#N)cc(C(C)N(CCCCc2ccccc2)C(=O)NC2(C(=O)O)CC(F)(F)C2)c1 (stereo not drawn) [Example 5-20] | 3.92
CC(c1cc(Cl)cc(Cl)c1)N(CCCCc1ccccc1)C(=O)NC1(C(=O)O)CC(F)(F)C1 (stereo not drawn) [Example 5-21] | 17.1
COc1cc(Br)cc(C(C)N(CCCCc2ccccc2)C(=O)NC2(C(=O)O)CC(F)(F)C2)c1 (stereo not drawn) [Example 5-22] | 7.13

SMILES | IC50 [nM]
Cc1cc(C)cc(CN(CCCCc2ccccc2)C(=O)NC2(C(=O)O)CCCC2)c1 [Example 5-23] | 3930
CC(c1cc(C(F)(F)F)cc(C(F)(F)F)c1)N(CCCCc1ccccc1)C(=O)NC1(C(=O)O)CC(F)(F)C1 (stereo not drawn) [Example 5-24] | 75.8
CCOc1cc(C(=O)NC)cc(C(C)N(CCCCc2ccccc2)C(=O)NC2(C(=O)O)CC(F)(F)C2)c1 (stereo not drawn) [Example 5-25] | 43.2
CCOc1cc([C@@H](C)N(CCO[C@@H](C)c2ccccc2)C(=O)N[C@]2(C(=O)O)C[C@@H](OCC)C2)c(Cl)c(OCC)c1C(C)=O [Example 5-26, Trans-1-[([(1R)-1-(4-Acetyl-2-Chloro-3,5-Diethoxyphenyl)Ethyl]{2-[(1S)-1-Phenylethoxy]Ethyl}Carbamoyl)Amino]-3-Ethoxycyclobutane-1-Carboxylic Acid] | 1.46
CCOc1cc([C@@H](C)N(CCO[C@@H](C)c2ccccc2)C(=O)N[C@]2(C(=O)O)C[C@H](OCC)C2)c(Cl)c(OCC)c1C(C)=O [Example 5-27] | 3.84
CCOc1cc([C@@H](C)N(CCO[C@@H](C)c2ccccc2)C(=O)N[C@]2(C(=O)O)C[C@@H](OC)C2)c(Cl)c(OCC)c1C(C)=O [Example 5-28] | 2.31
CCOc1cc([C@@H](C)N(CCO[C@@H](C)c2ccccc2)C(=O)N[C@]2(C(=O)O)C[C@H](OC)C2)c(Cl)c(OCC)c1C(C)=O [Example 5-29] | 4.63
CCOc1cc([C@@H](C)N(CCO[C@@H](C)c2ccccc2)C(=O)NC2(C(=O)O)CCC2)c(Cl)c(OCC)c1C(C)=O [Example 5-30] | 2.15
CCOc1cc([C@@H](C)N(CCO[C@@H](C)c2ccccc2)C(=O)NC2(C(=O)O)CC2)c(Cl)c(OCC)c1C(C)=O [Example 5-31, 1-[([(1R)-1-(4-acetyl-2-chloro-3,5-diethoxyphenyl)ethyl]{2-[(1S)-1-phenylethoxy]ethyl}carbamoyl)amino]cyclopropane-1-carboxylic acid] | 2.59
CCOc1cc([C@@H](C)N(CCO[C@@H](C)c2ccccc2)C(=O)NC2(C(=O)O)CC(F)(F)C2)c(Cl)c(OCC)c1C(C)=O [Example 5-32] | 2.04
CCOc1cc([C@@H](C)N(CCO[C@@H](C)c2ccccc2)C(=O)NC2(C(=O)O)CCOCC2)c(Cl)c(OCC)c1C(C)=O [Example 5-33] | 2.77
CCOc1cc([C@@H](C)N(CCO[C@H](C)c2ccccc2)C(=O)NC2(C(=O)O)CCOCC2)c(Cl)c(OCC)c1C(C)=O [Example 5-34] | 4.18
CCOc1cc([C@@H](C)N(CCO[C@H](C)c2ccccc2)C(=O)N[C@]2(C(=O)O)C[C@@H](OC)C2)c(Cl)c(OCC)c1C(C)=O [Example 5-35] | 3.97
CCOc1cc([C@@H](C)N(CCOCc2ccccc2)C(=O)N[C@]2(C(=O)O)C[C@@H](OC)C2)c(Cl)c(OCC)c1C(C)=O [Example 5-36] | 1.62
CCOc1cc([C@@H](C)N(CCOCc2ccccc2)C(=O)NC2CC(C(=O)O)C2)c(Cl)c(OCC)c1C(C)=O (stereo partly drawn) [Example 5-37] | 292
CCOc1cc([C@@H](C)N(CCOCc2ccccc2)C(=O)NC2(C(=O)O)CC(F)(F)C2)c(Cl)c(OCC)c1C(C)=O [Example 5-38] | 0.468
CCOc1cc([C@@H](C)N(CCOCc2ccccc2)C(=O)NC2(C(=O)O)CCOCC2)c(Cl)c(OCC)c1C(C)=O [Example 5-39] | 0.516
CCOc1cc([C@@H](C)N(CCC(F)(F)Cc2ccccc2)C(=O)NC2(C(=O)O)CC(F)(F)C2)c(Cl)c(OCC)c1C(C)=O [Example 5-40] | 4.63
CCOc1cc([C@@H](C)N(CCC(F)(F)Cc2ccccc2)C(=O)NC2(C(=O)O)CC(OC)C2)c(Cl)c(OCC)c1C(C)=O (stereo partly drawn) [Example 5-41] | 10.3
CCOc1cc([C@@H](C)N(CCC(F)(F)Cc2ccccc2)C(=O)NC2(C(=O)O)CC(OC)C2)c(Cl)c(OCC)c1C(C)=O (stereo partly drawn) [Example 5-42] | 7.45
